# According to article PMC11990524, “Design and Synthesis of Novel 6-(Substituted phenyl)-[1,3]dioxolo[4′,5′:4,5]benzo[1,2-d]thiazole Compounds as Tyrosinase Inhibitors: In Vitro and In Vivo Insights” (Molecules, 2025):
# Key:
# [1] = biological target: T1, B16F10 cellular tyrosinase (Mus musculus, UniProt P11344); assay: Cellular tyrosinase activity assay using B16F10 cells; assay type: cell-based, murine; conditions: 1, 2, and 5 μM, IBMX 200 μM plus α-MSH 1 μM, 72 h
# T1 construct: endogenous in cells; host or cells: B16F10 murine cells, stimulated with α-MSH and IBMX
# T1 sequence (P11344 19-533): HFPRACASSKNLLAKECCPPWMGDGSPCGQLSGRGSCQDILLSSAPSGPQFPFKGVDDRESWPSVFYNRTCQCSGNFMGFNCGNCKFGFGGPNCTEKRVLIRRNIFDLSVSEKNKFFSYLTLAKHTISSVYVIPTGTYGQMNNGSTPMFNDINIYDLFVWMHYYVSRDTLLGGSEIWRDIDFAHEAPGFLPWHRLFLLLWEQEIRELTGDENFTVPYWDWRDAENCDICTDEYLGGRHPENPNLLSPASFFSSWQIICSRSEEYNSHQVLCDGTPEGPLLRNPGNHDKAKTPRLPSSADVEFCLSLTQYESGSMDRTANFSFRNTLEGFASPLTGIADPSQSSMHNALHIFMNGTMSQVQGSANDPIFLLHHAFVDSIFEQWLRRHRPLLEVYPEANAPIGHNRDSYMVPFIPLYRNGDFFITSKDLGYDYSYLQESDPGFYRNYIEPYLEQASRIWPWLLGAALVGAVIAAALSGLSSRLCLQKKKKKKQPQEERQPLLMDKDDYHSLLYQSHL
# Description: After 72 h of incubation, the B16F10 cellular tyrosinase inhibitory activity was evaluated by measuring the optical density at 475 nm.
# To evaluate the effect of compounds 5 and 9 on cellular tyrosinase activity, B16F10 cells (5000 cells/well) were inoculated in a 6-well plate and cultured for 24 h under the same conditions as the cell culture. […] The plate was incubated in a 5% CO2 incubator maintained at 37 °C for 1 h. Each well was treated with stimulators (1 μM α-MSH [Alomone Labs^TM, Jerusalem, Israel] and 200 μM IBMX [Thermo Fisher, Rockford, IL, USA]) and incubated in a CO2 incubator for 72 h. The cells were rinsed twice with PBS (pH 7.4) and treated with 100 μL lysis buffer solution consisting of Triton X-100 (1%; 5 μL), phosphate buffer (50 mM; pH 6.5; 90 μL), and phenylmethanesulfonyl fluoride (2 mM; 5 μL). The lysates were placed for 30 min at −80 °C. After centrifuging at 10,000 g and 4 °C for 10 min, an aliquot (80 μL) of the supernatants was transferred to each well of a 96-well plate, and 20 μL of L-dopa solution (10 mM) was added to each well. The optical density at 475 nm was recorded every min for 10 min to determine cellular tyrosinase activity.
# [2] = test system: B16F10 cells; assay: Cellular melanin content assay using B16F10 cells; assay type: cell-based, murine
# Description: After 72 h of incubation, the melanin content was evaluated by measuring the optical density at 405 nm.
# The plate was incubated in a CO2 incubator for 1 h. Each well was treated with stimulators (α-MSH and IBMX; 1 μM and 200 μM, respectively) and incubated in a CO2 incubator for 72 h. The incubated cells were rinsed twice with PBS (pH 7.4). 1N–NaOH solution (100 μL) was added to each well and warmed at 60 °C for 1 h. The lysates were transferred to each well of a 96-well plate. The optical density was measured at 405 nm.
# [3] = ABTS radical scavenging assay; conditions: 100 μM
# Description: The ABTS^+ radical solution was obtained by mixing ABTS and potassium persulfate, an oxidizing reagent, and test samples (1–13 and Trolox [positive control]; final concentration: 100 μM) were added to determine their ABTS^+ radical scavenging ability by measuring the optical density at 732 nm.
# To prepare ABTS^•+ stock solution, equal amounts of ABTS (14 mM aqueous solution) and K2S2O8 (4.9 mM aqueous solution) were mixed and stored in the dark at 18 °C for 15 h. The prepared ABTS^•+ solution was diluted in ethanol to adjust the absorbance to 0.7 ± 0.01 at 732 nm. The test samples (Trolox [positive control] and compounds 1–13) were dissolved in a cosolvent of ethanol and DMSO (10:1 [v/v]). The adjusted ABTS^•+ solution (90 μL) and test sample (10 μL) were added to each well of a 96-well plate, and the plate was stored in a dark place at 18 °C for 2 min. The optical density was measured at 732 nm every min for 10 min. The test sample solutions were tested at a final concentration of 100 μM. The percentage of radical scavenging activity was calculated as follows: % Radical scavenging activity = 100 × [(Absc − Abst)/Absc], where Abst and Absc are optical densities of the test sample and control, respectively.
# [4] = DPPH radical scavenging assay; conditions: 500 μM; 30 min in the dark
# Description: DPPH radical scavenging activity was determined by mixing the DPPH solution with compounds 1–13, leaving it in the dark at 20 °C for 30 min, and measuring the optical density at 517 nm. Ascorbic acid (AA) was used as a positive control to compare the scavenging activity. All test samples were used at 500 μM.
# An aliquot (20 μL) of test sample (compounds 1–13 and ascorbic acid [positive control]; 5 mM) in DMSO and 180 μL DPPH solution (0.2 mM) in methanol were mixed in each well of a 96-well plate. The mixed solution was kept in the dark at 18 °C for 30 min. A VE microplate reader was used to measure the optical density of each well at 517 nm.
# [5] = biological target: mushroom tyrosinase (Agaricus bisporus, UniProt C7FF04); assay: Kinetic analysis of mushroom tyrosinase (Lineweaver–Burk and Dixon plots); assay type: biochemical; parameters: purchased Sigma-Aldrich; conditions: substrate L-dopa
# mushroom tyrosinase, sequence (C7FF04 1-392): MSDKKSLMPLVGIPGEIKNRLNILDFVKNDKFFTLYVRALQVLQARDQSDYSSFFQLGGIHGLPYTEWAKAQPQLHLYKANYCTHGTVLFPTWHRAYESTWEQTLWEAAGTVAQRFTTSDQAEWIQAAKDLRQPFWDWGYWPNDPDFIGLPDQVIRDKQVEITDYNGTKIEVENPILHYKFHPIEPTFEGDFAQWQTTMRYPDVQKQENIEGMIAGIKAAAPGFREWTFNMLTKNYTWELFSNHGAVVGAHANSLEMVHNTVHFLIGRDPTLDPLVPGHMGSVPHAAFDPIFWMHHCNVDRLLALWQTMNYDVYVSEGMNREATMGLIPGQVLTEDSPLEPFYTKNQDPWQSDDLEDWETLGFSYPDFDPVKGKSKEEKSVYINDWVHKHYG
# Description: Therefore, the mechanism of inhibition was investigated using mushroom tyrosinase. At various concentrations of L-dopa, the initial dopachrome production rate was investigated at four different concentrations of 5 (0, 20, 40, and 80 μM) and 9 (0, 0.5, 1.0, and 2.0 μM).
# The Lineweaver–Burk plot for each compound was re-plotted by plotting the reciprocal of the initial dopachrome production rate vs. the […] to create a Dixon plot for each compound (Figure 3C,D for compounds 5 and 9, respectively). […] The absolute value of the x-coordinate of the merged point represents the inhibition constant (Ki), which indicates the potency of the inhibitor.
# Kinetic analysis of mushroom tyrosinase was performed by recording the initial dopachrome formation rate in the presence of compounds 5 and 9. […] The optical density of dopachrome production in each well was recorded at 475 nm at 5 min intervals for 30 min. Compounds were tested at 80, 40, 20, and 0 μM for 5 and at 2, 1.0, 0.5, and 0 μM for 9, respectively. Potting the inverse of the substrate concentration vs. the reciprocal of the initial dopachrome production rate generated Lineweaver–Burk plots.
structure (smiles),measurement,setting,value
"Oc1ccc(-c2nc3cc4c(cc3s2)OCO4)c(O)c1 [Compound 9, 4-([1,3]Dioxolo[4′,5′:4,5]benzo[1,2-d]thiazol-6-yl)benzene-1,3-diol]",cellular tyrosinase activity,[1],significantly decreased the cellular tyrosinase activity
same,melanin content,"[2]; 1, 2, and 5 μM, IBMX 200 μM plus α-MSH 1 μM, 72 h",significantly reduced the stimulator-induced melanin contents
same,melanin production inhibition compared with kojic acid,[2]; same concentration (5 μM),inhibited melanin production more potently than kojic acid
same,ABTS^+ radical scavenging activity (inhibition rate),[3],96%
same,DPPH radical scavenging (inhibition),[4],85%
same,Ki,"[5]; Dixon plot, read-out: inhibition constant (Ki)",380 nM
same,mechanism of inhibition,[5]; Lineweaver–Burk plot,competitive inhibitors
